Assay results from patent publication US9253987B2, “Antimicrobial agents and methods of use” (Hyprotek, Inc., priority 2010, dated 2016).

Test system: leukoplakia lesions within the oral cavity displaying invasive squamous cell carcinoma
Assay: Topical treatment of oral leukoplakia / squamous cell carcinoma lesion in a human subject
Format: in vivo
Conditions: same human subject, before the antimicrobial agent
Excerpt: In addition to the being diagnosed with chronic periodontitis, the subject developed leukoplakia lesions within the oral cavity displaying invasive squamous cell carcinoma with surrounding carcinoma-in-situ and dysplasia in the right mandibular gingival area. Visual inspection of the lesions appeared as white, translucent patches. […] Previously, the subject's dentists had attempted to treat the chronic periodontitis and leukoplakia with a succession of oral antibiotics, antifungal fluconazole and prolonged courses of chlorhexidine oral rinses, in addition to vigorous dental hygiene.
A single topical application of the antimicrobial agent of the present application in solution form was applied to the right lower mandibular gingival area while the right upper mandibular gingival area remained untreated. Visual inspection of the antimicrobial agent-treated area produced noticeable reduction in both the size and severity of the lesion within approximately 10 hours. Continued daily or twice-daily applications of the antimicrobial agent solution to the right lower mandibular gingival area over 12 days were effective to further reduce the lesion to approximately 1 mm. […] In contrast, the pathology of the untreated right upper mandibular gingival area continued to display signs of invasive squamous cell carcinoma and was only finally removed by surgery post treatment.

| Structure (SMILES) | outcome of previous therapy of chronic periodontitis and leukoplakia |
| --- | --- |
| [H]/N=C(\N/C(=N/[H])NCCCCCCNC(=N)NC(=N)Nc1ccc(Cl)cc1)Nc1ccc(Cl)cc1 [chlorhexidine] | failed significantly to improve their condition |
| OC(Cn1cncn1)(Cn1cncn1)c1ccc(F)cc1F [fluconazole] | failed significantly to improve their condition |
